Results on three molecules are retold here after US20250051316A1, “2-(ARYL-2-YL) […] […], PREPARATION METHOD THEREFOR AND APPLICATION THEREOF” (SHANGHAI HANSOH BIOMEDICAL CO., LTD., priority 2021, published 2025).

The term AUC(0-t) denotes the area under the concentration-time curve up to a stated or last time point. What is called Cmax is the maximum level reached in the sampled fluid or tissue. The Tmax is the time at which the peak concentration occurs. Broadly, the half-life is the time needed for the level to fall by half in the phase considered. Low readings indicate rapid decline, high ones slow decline.

A short description of the data set: Pharmacokinetic assay of Balb/c mice, plasma and brain, oral. The settings on record: male, mouse, p.o. 5 mg/kg. The class given is in vivo. How it is done:
Test Example 3. Pharmacokinetic Assay of Balb/c Mice
Balb/c Mice were used as test animals. The pharmacokinetic behavior of the compounds of the present invention was studied in the plasma and brain of mice administered orally at the dose of 5 mg/kg.
Balb/c Mice, male, Shanghai Jiesijie Experimental Animal Co., Ltd., animal production license number (SCXK (Shanghai) 2013-0006 N0.311620400001794).
After fasting overnight, 24 male Balb/c mice were administered p.o. at a dose of 5 mg/kg and an administration volume of 10 mL/kg, respectively.
Drug formulation for oral administration: 0.5% CMC-Na (1% Tween 80).
After CO2 euthanasia of experimental animals, heart blood and brain tissue were collected at 0.25 h, 0.5 h, 1 h, 2 h, 4 h, 6 h, 8 h, and 24 h after administration. The blood was placed in EDTA-2K tubes and centrifuged at 4° C. and 6000 rpm for 6 minutes to separate plasma. The brain tissue was washed with pre-cooled PBS, dried, weighed, and stored at −80° C. The animals were feed 4 hours after administration.
1) 160 μL of acetonitrile was added to 40 μL of the plasma sample for precipitation, and then the mixture was centrifuged at 3500×g for 5-20 min.
2) 100 μL of the supernatant was taken to analyze the concentration of the test compound by LC/MS/MS.
• Liquid chromatography condition: Shimadzu LC-20AD pump • Mass spectrometry condition: AB Sciex API 4000 mass spectrometer • Chromatographic column: phenomenex Gemiu 5 μm C18 50×4.6 mm • Mobile phase: Eluent A was 0.10% formic acid in water, and Eluent B was acetonitrile • Flow rate: […] • Elution time: 0-4.0 minutes, the eluent is as follows:
The main pharmacokinetic parameters were calculated using WinNonlin8.1, and the results of the pharmacokinetic experiments in mouse are shown in the table below.

Each structure is given as a SMILES string.

Consider `[2H]C1([2H])CO[C@@H](c2ccc(F)cn2)CN1` (single isomer, unassigned) [Example 17-2, 2-(5-fluoropyridin-2-yl)morpholin-5,5-d2], for which, under “Brain”, the AUC(0-t) is 7500 ng·h/mL, the Cmax was determined as 3160 ng/mL and the Tmax was 30 min. Further, under “Plasma”, the AUC(0-t) came out at 2630 ng·h/mL, the Cmax was 1450 ng/mL, the time of peak concentration (Tmax) was 15 min and the half-life was 78 min.
As to `[2H]C1([2H])COC(c2cccc(C)n2)CN1` (single isomer, unassigned) [Example 10-2, 2-(6-Methylpyridin-2-yl)morpholin-5,5-d2], where the note is “Brain”, the AUC(0-t) was 12500 ng·h/mL, the highest level (Cmax) was 3540 ng/mL, the Tmax amounted to 30 min and the half-life was 150 min. Where the note is “Plasma”, the exposure AUC(0-t) stood at 5430 ng·h/mL, the Cmax was found to be 1320 ng/mL, the Tmax was determined as 15 min and the half-life is 144 min.
As for `[2H]C1([2H])CO[C@H](c2ccc(F)cc2)CN1` (single isomer, unassigned) [Example 33-1, 2-(4-Fluorophenyl)morpholin-5,5-d2], where the note is “Brain”, the AUC(0-t) amounted to 15300 ng·h/mL, the highest level (Cmax) was 8360 ng/mL, the Tmax was found to be 15 min and the half-life was 192 min. Under “Plasma”, the exposure AUC(0-t) was 5030 ng·h/mL, the Cmax amounted to 1970 ng/mL, the Tmax stood at 15 min and the half-life is 192 min.
